# Data reported in patent publication US8134015B2, “Compound inhibiting in vivo phosphorous transport and medicine containing the same” (Kyowa Hakko Kirin Co., Ltd., priority 2003, dated 2012).
# Target: T1, rat NaPi-2b (Rattus norvegicus, UniProt Q9JJ09)
# T1 construct: expressed in transfected cells; host or cells: Xenopus oocytes injected with cRNA
# T1 sequence (Q9JJ09 1-695): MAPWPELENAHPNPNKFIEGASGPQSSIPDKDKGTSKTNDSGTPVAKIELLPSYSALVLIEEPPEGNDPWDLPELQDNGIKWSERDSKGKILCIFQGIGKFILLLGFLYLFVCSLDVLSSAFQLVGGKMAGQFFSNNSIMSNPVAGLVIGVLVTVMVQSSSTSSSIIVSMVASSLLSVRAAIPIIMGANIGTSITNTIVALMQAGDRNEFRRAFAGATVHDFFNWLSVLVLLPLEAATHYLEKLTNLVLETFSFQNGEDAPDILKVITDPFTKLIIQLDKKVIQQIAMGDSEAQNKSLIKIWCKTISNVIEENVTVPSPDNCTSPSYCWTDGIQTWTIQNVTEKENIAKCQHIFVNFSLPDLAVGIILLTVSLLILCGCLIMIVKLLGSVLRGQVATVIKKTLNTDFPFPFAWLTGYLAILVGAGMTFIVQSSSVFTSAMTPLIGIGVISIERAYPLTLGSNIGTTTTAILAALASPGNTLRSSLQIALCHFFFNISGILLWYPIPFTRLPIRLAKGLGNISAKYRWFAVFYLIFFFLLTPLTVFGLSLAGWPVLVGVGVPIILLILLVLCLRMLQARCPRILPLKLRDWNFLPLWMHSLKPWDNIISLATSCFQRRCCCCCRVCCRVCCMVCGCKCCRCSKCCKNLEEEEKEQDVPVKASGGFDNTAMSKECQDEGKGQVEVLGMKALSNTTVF
# Test: Sodium-dependent phosphate uptake of Xenopus oocytes which expressed NaPi-2b (32P)
# Type: cell-based
# Details: Xenopus oocytes expressing rat NaPi-2b, 32P radioactive phosphorus; read-out: IC50 (phosphate uptake inhibitory activity)
# How it was run: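 Percent inhibition at 300 μM and 100 μM comes from the same inhibition curve of 32P uptake. Assay used oocytes expressing rat NaPi-2b after 2 days of culture.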
row,SMILES,IC50
1,"COc1ccc(/C=N/NC(=O)c2c(NC(=O)c3cccc(CN4CCC(N5CCCCC5)CC4)c3)sc3c2CCCC3)cc1 [Compound 620, 3-[1,4′]Bipiperidinyl-1′-ylmethyl-N-[3-(4-methoxy-benzylidene-hydrazinocarbonyl)-4,5,6,7-tetrahydro-benzo[b]thiophen-2-yl]-benzamide]",3.58 µM
2,"Cc1ccc(/C=N/NC(=O)c2c(NC(=O)c3cccc(CN4CCN(CCO)CC4)c3)sc3c2CCCC3)cc1C [Compound 621, N-[3-(3,4-Dimethyl-benzylidene-hydrazinocarbonyl)-4,5,6,7-tetrahydro-benzo[b]thiophen-2-yl]-3-[4-(2-hydroxy-ethyl)-piperazin-1-ylmethyl]-benzamide]",< 3 µM
3,"Cc1ccc(/C=N/NC(=O)c2c(NC(=O)c3cccc(CN4CCN(CCO)CC4)c3)sc3c2CCCC3)cc1 [Compound 622, 3-[4-(2-Hydroxy-ethyl)-piperazin-1-ylmethyl]-N-[3-(4-methyl-benzylidene-hydrazinocarbonyl)-4,5,6,7-tetrahydro-benzo-[b]thiophen-2-yl]-benzamide]",< 3 µM
4,"O=C(Nc1sc2c(c1C(=O)N/N=C/c1ccc(Cl)c(C(F)(F)F)c1)CCCC2)c1cccc(CN2CCN(CCO)CC2)c1 [Compound 625, N-[3-(4-Chloro-3-trifluoromethyl-benzylidene-hydrazinocarbonyl)-4,5,6,7-tetrahydro-benzo[b]thiophen-2-yl]-3-[4-(2-hydroxy-ethyl)-piperazin-1-ylmethyl]-benzamide]",< 3 µM
5,"O=C(Nc1sc2c(c1C(=O)N/N=C/c1ccc(Cl)c(C(F)(F)F)c1)CCCC2)c1cccc(CN2CCC(CO)CC2)c1 [Compound 643, N-[3-(4-Chloro-3-trifluoromethyl-benzylidene-hydrazinocarbonyl)-4,5,6,7-tetrahydro-benzo[b]thiophen-2-yl]-3-(4-hydroxymethyl-piperidin-1-ylmethyl)-benzamide]",3.68 µM
6,"COc1ccc(/C=N/NC(=O)c2c(NC(=O)c3cccc(CN4CCC(CO)CC4)c3)sc3c2CCCC3)cc1 [Compound 644, 3-(4-Hydroxymethyl-piperidin-1-ylmethyl)-N-[3-(4-methoxy-benzylidene-hydrazinocarbonyl)-4,5,6,7-tetrahydro-benzo-[b]thiophen-2-yl]-benzamide]",5.91 µM
7,"Cc1ccc(CNNC(=O)c2c(C)csc2NC(=O)c2cccc(CSCCCO)c2)cc1C [Compound 645, N-{3-[N′-(3,4-Dimethyl-benzyl)-hydrazinocarbonyl]-4-methyl-thiophen-2-yl}-3-(3-hydroxy-propylsulfanylmethyl)-benzamide]",< 3 µM
8,"Cc1ccc(/C=N/n2c(-c3cccc(CSc4nc[nH]n4)c3)nc3sc4c(c3c2=O)CCCC4)cc1C [Compound 646, 3-[(3,4-Dimethyl-benzylidene-)-amino]-2-[3-(1H-[1,2,4]triazol-3-ylsulfanylmethyl)-phenyl]-5,6,7,8-tetrahydro-3H-benzo[4,5]thieno[2,3-d]pyrimidin-4-one]",1.77 µM
9,"O=c1c2c3c(sc2nc(-c2cccc(CSc4nc[nH]n4)c2)n1/N=C/c1cccc(F)c1)CCCC3 [Compound 649, 3-[(3-Fluoro-benzylidene)-amino]-2-[3-(1H-[1,2,4]triazol-3-ylsulfanylmethyl)-phenyl]-5,6,7,8-tetrahydro-3H-benzo[4,5]thieno[2,3-d]pyrimidin-4-one]",2.69 µM
10,"O=c1c2c3c(sc2nc(-c2cccc(CSc4nc[nH]n4)c2)n1/N=C/c1ccc(Cl)c(C(F)(F)F)c1)CCCC3 [Compound 650, 3-[(4-Chloro-3-trifluoromethyl-benzylidene)-amino]-2-[3-(1H-[1,2,4]triazol-3-ylsulfanylmethyl)-phenyl]-5,6,7,8-tetrahydro-3H-benzo[4,5]thieno[2,3-d]pyrimidin-4-one]",0.95 µM
11,"CCN(CC)CCN(Cc1cccc(C(=O)Nc2sc3c(c2C(=O)N/N=C/c2ccc(C)c(C)c2)CCCC3)c1)C(C)=O [Compound 652, 3-{[Acetyl-(2-diethylamino-ethyl)-amino]-methyl}-N-[3-(3,4-dimethyl-benzylidene-hydrazinocarbonyl)-4,5,6,7-tetrahydro-benzo[b]thiophen-2-yl]-benzamide]",0.72 µM
12,"CCN(CC)CCN(Cc1cccc(C(=O)Nc2sc3c(c2C(=O)N/N=C/c2ccc(C)cc2)CCCC3)c1)C(C)=O [Compound 653, 3-{[Acetyl-(2-diethylamino-ethyl)-amino]-methyl}-N-[3-(4-methyl-benzylidene-hydrazinocarbonyl)-4,5,6,7-tetrahydro-benzo[b]-thiophen-2-yl]-benzamide]",1.1 µM

# Second part, the compound after the results:
row,IC50,SMILES
1,< 3 µM,"O=C(Nc1sc2c(c1C(=O)N/N=C/c1ccc(F)cc1)CCCC2)c1cccc(CN2CCN(CCO)CC2)c1 [Compound 623, N-[3-(4-Fluoro-benzylidene-hydrazinocarbonyl)-4,5,6,7-tetrahydro-benzo[b]thiophen-2-yl]-3-[4-(2-hydroxy-ethyl)-piperazin-1-ylmethyl]-benzamide]"
2,< 3 µM,"O=C(Nc1sc2c(c1C(=O)N/N=C/c1cccc(F)c1)CCCC2)c1cccc(CN2CCN(CCO)CC2)c1 [Compound 624, N-[3-(3-Fluoro-benzylidene-hydrazinocarbonyl)-4,5,6,7-tetrahydro-benzo[b]thiophen-2-yl]-3-[4-(2-hydroxy-ethyl)-piperazin-1-ylmethyl]-benzamide]"
3,< 3 µM,"COc1ccc(/C=N/NC(=O)c2c(NC(=O)c3cccc(CN4CCN(CCO)CC4)c3)sc3c2CCCC3)cc1 [Compound 626, 3-[4-(2-Hydroxy-ethyl)-piperazin-1-ylmethyl]-N-[3-(4-methoxy-benzylidene-hydrazinocarbonyl)-4,5,6,7-tetrahydro-benzo-[b]thiophen-2-yl]-benzamide]"
4,5.62 µM,"Cc1ccc(/C=N/n2c(-c3cccc(CSc4nc[nH]n4)c3)nc3sc4c(c3c2=O)CCCC4)cc1 [Compound 647, 3-[(4-Methyl-benzylidene-)-amino]-2-[3-(1H-[1,2,4]triazol-3-ylsulfanylmethyl)-phenyl]-5,6,7,8-tetrahydro-3H-benzo[4,5]thieno[2,3-d]pyrimidin-4-one]"
5,2.04 µM,"O=c1c2c3c(sc2nc(-c2cccc(CSc4nc[nH]n4)c2)n1/N=C/c1ccc(F)cc1)CCCC3 [Compound 648, 3-[(4-Fluoro-benzylidene-)-amino]-2-[3-(1H-[1,2,4]triazol-3-ylsulfanylmethyl)-phenyl]-5,6,7,8-tetrahydro-3H-benzo[4,5]thieno[2,3-d]pyrimidin-4-one]"
6,263 µM,"COc1ccc(/C=N/n2c(-c3cccc(CSc4nc[nH]n4)c3)nc3sc4c(c3c2=O)CCCC4)cc1 [Compound 651, 3-[(4-Methoxy-benzylidene)-amino]-2-[3-(1H-[1,2,4]triazol-3-ylsulfanylmethyl)-phenyl]-5,6,7,8-tetrahydro-3H-benzo[4,5]thieno[2,3-d]pyrimidin-4-one]"
7,2.03 µM,"CCN(CC)CCN(Cc1cccc(C(=O)Nc2sc3c(c2C(=O)N/N=C/c2ccc(F)cc2)CCCC3)c1)C(C)=O [Compound 654, 3-{[Acetyl-(2-diethylamino-ethyl)-amino]-methyl}-N-[3-(4-fluoro-benzylidene-hydrazinocarbonyl)-4,5,6,7-tetrahydro-benzo[b]-thiophen-2-yl]-benzamide]"
